Patent publication US20160266093A1, “CELLS HAVING DISRUPTED EXPRESSION OF PROTEINS INVOLVED IN ADME AND TOXICOLOGY PROCESSES” (SIGMA-ALDRICH CO. LLC, priority 2010, published 2016)

How the values were obtained:
[1] = test system: parental C2BBe1 cells (wild type); conditions: Caco-2
Experimental: (§1) Both wild type cells (parental C2BBe1 cells) and BCRP knockout cells were seeded onto 24-well transwell plates and cultured for 21 days, following a standard protocol for intestinal efflux transporter assays previously developed using Caco-2 cells. The permeability of test compounds in both the apical to basal (A to B) and basal to apical (B to A) directions was measured following a two hour incubation and the efflux values calculated. […] Digoxin is a known MDR1 substrate, while CDCFDA is selective for the MRP2 transporter. Two additional compounds were used as controls, atenolol and metoprolol, which are known to not be substrates for either of these transporters.
(§2) The BCRP and MDR1 transporter genes were individually knocked out and an MDR1/BCRP double knockout was also generated in C2BBe1 cells using zinc finger nuclease technology. Cells were analyzed and expanded as described above and then tested for functional activity in the standard transwell assay. Two substrates were utilized—estrone 3-sulfate as a selective substrate for BCRP and digoxin as a selective substrate for MDR1. Metoprolol was used as a control.

[2] = test system: MDR1/BCRP double knockout C2BBe1 cells
Experimental: as §1, §2

[3] = test system: MDR1 knockout C2BBe1 cells
Experimental: as §1, §2

[4] = test system: BCRP knockout C2BBe1 cells
Experimental: The wild-type BCRP gene was knocked out in C2BBe1 cells using zinc finger nuclease technology to generate a stable cell line. Cells were sorted and single cell cloned. Cells were analyzed for the desired mutations and positive clones were chosen for further expansion and analysis. Quantitative PCR was used to evaluate mRNA expression of the cell and compared to wild type cell. Whole cell lysates prepared from these clones were subjected to immunoblotting for analysis of BCRP protein expression level. […] A single BCRP knockout cell clone was selected for functional characterization of efflux activity using several known transporter-selective substrates (e.g. estrone 3-sulfate, digoxin and CDCFDA).
as §1, §2

| Compound | efflux ratio [1] | efflux ratio [2] | efflux ratio [3] | efflux ratio [4] | efflux ratio in the knockout cells compared to the parental cells [4] |
| --- | --- | --- | --- | --- | --- |
| C[C@H]1O[C@@H](O[C@H]2[C@@H](O)C[C@H](O[C@H]3[C@@H](O)C[C@H](O[C@H]4CC[C@@]5(C)[C@H](CC[C@@H]6[C@@H]5C[C@@H](O)[C@]5(C)[C@@H](C7=CC(=O)OC7)CC[C@]65O)C4)O[C@@H]3C)O[C@@H]2C)C[C@H](O)[C@@H]1O [digoxin] | high | inhibited | inhibited | high | unaffected |
| C[C@]12CC[C@@H]3c4ccc(OS(=O)(=O)O)cc4CC[C@H]3[C@@H]1CCC2=O [estrone 3-sulfate] | high | inhibited | high | inhibited | greatly reduced |
